# From US20110124630A1, “STEMONAMIDE SYNTHESIS INTERMEDIATE AND PHARMACEUTICAL COMPOSITION FOR PREVENTION AND/OR TREATMENT OF CANCER” (priority 2008, published 2011)
# Experiments:
# Pim-3 = Pim-3 (Homo sapiens, UniProt Q86V86); test: In vitro assay of Pim-3 kinase activity (His-Bad phosphorylation, ELISA with anti-pBad Ser112 antibody); assay type: biochemical; conditions: 0, 20, 40, 80, 160 μmol/l compound; 10 μmol/l ATP; 30° C. 1 hour; FIG. 1
# Protocol: A His-Bad protein solution (3 μg/ml) diluted with a carbonate buffer (pH 9.6) (15 mmol/l Na2CO3(Wako), […] NaHCO3 (Wako), 0.02% (w/v) NaN3 (Wako), pH 9.6) was added at 100 μl/well to a 96-well microplate (Nunc-Immuno™ Plate, NUNC Brand Products, Nalge Nunc International, Denmark), and the plate was coated at 4° C. overnight. The plate was washed 3 times on the following day, a 1% BSA/PBS(−) solution was added at 150 μl/well, the plate was blocked at 37° C. for 1 hour, and the plate was then washed 3 times. A kinase buffer containing 19.2 nmol/l thioredoxin-hexahistidine-Pim-3 fusion protein, 10 μmol/l ATP (Cell Signaling), and Compounds 5, 7, and 12 synthesized in the examples above (0, 20, 40, 80, and 160 μmol/l) (25 mmol/l Tris-HCl (pH 7.5), 10 mmol/l MgCl2, 0.1 mmol/l Na3VO4, 2 mmol/l dithiothreitol (DTT), 5 mmol/l s-glycerophosphate, Cell Signaling) was added at 40 μl/well to the treated plate. After the reaction was carried out at 30° C. for 1 hour, the plate was washed 5 times, the 1.000-fold diluted anti-pBadser112 rabbit antibody (Cell Signaling) was added at 100 μl/well, and the reaction was carried out at 37° C. for 1 hour. […] The plate was subjected to the absorbance assay at 405 nm using a microplate reader (Model 550, Bio-Rad). […]
# Hep3B = test: Cell growth assay (liver cancer cell), WST-1; assay type: cell-based, human; conditions: 4, 6, 8, 10 μmol/l, 0-96 hours, FIG. 8
# Protocol: (§1) Human liver cancer cell lines (Hep3B, HuH7, and HepG2 at 4000, 3000, and 4000 cells/well) were dispensed into a 96-well cell culture Microtest Plate (Becton Dickinson) with 100 μl of culture media. The media were removed 16 to 18 hours after the initiation of culture, and media containing the test compounds (0.1% DMSO, Compound 7 (4, 6, 8, and 10 μmol/l)) were added at 100 μl/well. After culture was continued for 0, 24, 48, 72, and 96 hours, the medium containing the test compound was removed, and a 10% WST-1 medium (Roche) was added at 100 μl/well. After culture was conducted for an additional 1 hour, the absorbance at 450 nm was assayed using a microplate reader (Model 550, Bio-Rad). RPMI-1640 medium (SIGMA) was used, and 10% calf serum (Invitrogen), 50 U/ml penicillin G (SIGMA), and 50 μg/ml streptomycin (SIGMA) were added to the medium. The cell lines were cultured in a 37° C. 5% CO2 carbon dioxide incubator (ESPEC).
# HuH7 = test: Cell growth assay (liver cancer cell), WST-1; assay type: cell-based, human; conditions: 4, 6, 8, 10 μmol/l, 0-96 hours, FIG. 8
# Protocol: as §1
# HepG2 = test: Cell growth assay (liver cancer cell), WST-1; assay type: cell-based, human; conditions: 4, 6, 8, 10 μmol/l, 0-96 hours, FIG. 8
# Protocol: as §1
# SW480 = test: Cell growth assay (colon cancer cell), WST-1; assay type: cell-based, human; conditions: 4, 6, 8, 10 μmol/l, 0-96 hours, FIG. 9
# Protocol: (§2) Human colon cancer cell lines (SW48, SW480, and HT29 at 3,000 cells/well) were dispensed into a 96-well cell culture Microtest Plate (Becton Dickinson) with 100 μl of culture media. The media were removed 16 to 18 hours after the initiation of culture, and the media containing the test compounds (0.1% DMSO, Compound 7 (4, 6, 8, and 10 μmol/l)) were added at 100 μl/well. After culture was continued for 0, 24, 48, 72, and 96 hours, the medium containing the test compound was removed, and a 10% WST-1 medium (Roche) was added at 100 μl/well. After culture was conducted for an additional 1 hour, the absorbance at 450 nm was assayed using a microplate reader (Model 550, Bio-Rad). RPMI-1640 medium (SIGMA) was used, and 10% calf serum (Invitrogen), 50 U/ml penicillin G (SIGMA), and 50 μg/ml streptomycin (SIGMA) were added to the medium. The cell lines were cultured in a 37° C. 5% CO2 carbon dioxide incubator (ESPEC).
# HT29 = test: Cell growth assay (colon cancer cell), WST-1; assay type: cell-based, human; conditions: 4, 6, 8, 10 μmol/l, 0-96 hours, FIG. 9
# Protocol: as §2
# SW48 = test: Cell growth assay (colon cancer cell), WST-1; assay type: cell-based, human; conditions: 4, 6, 8, 10 μmol/l, 0-96 hours, FIG. 9
# Protocol: as §2
# L3.6 pl cell line = test: Cell growth assay (pancreatic cancer cell), WST-1; assay type: cell-based, human; conditions: Compound 7 4-10 μmol/l, Compound 12 5-30 μmol/l, 0-96 hours, FIG. 5
# Protocol: (§3) Human pancreatic cancer cell lines (PCI35, PCI55, PCI66, MiaPaCa-2, L3.6 […], and PANC-1) were dispensed into a 96-well cell culture Microtest Plate (Becton Dickinson) at 3,000 cells/well with 100 μl of culture media. The media were removed 16 to 18 hours after the initiation of culture, and media containing the test compounds (i.e., 0.1% DMSO, Compound 7 (4, 6, 8, 10 μmol/l), Compound 12 (5, 10, 20, 30 μmol/l)) were added at 100 μl/well. After culture was continued for 0, 24, 48, 72, and 96 hours, the medium containing the test compound was removed, and a 10% WST-1 medium (Roche) was added at 100 μl/well. After culture was conducted for an additional 1 hour, the absorbance at 450 nm was assayed using a microplate reader (Model 550, Bio-Rad). RPMI-1640 medium (SIGMA) was used for the PCI35, PCI55, PCI66, MiaPaCa-2, and PANC-1 cell lines, MEM medium (Invitrogen) was used for the L3.6 pl cell lines, and 10% calf serum (Invitrogen), 50 U/ml penicillin G (SIGMA), and 50 μg/ml streptomycin (SIGMA) were added to every medium. The cell lines were cultured in a 37° C. 5% CO2 carbon dioxide incubator (ESPEC).
# PCI35 cell line = test: Cell growth assay (pancreatic cancer cell), WST-1; assay type: cell-based, human; conditions: Compound 7 4-10 μmol/l, Compound 12 5-30 μmol/l, 0-96 hours, FIG. 2
# Protocol: as §3
# MiaPaCa-2 cell line = test: Cell growth assay (pancreatic cancer cell), WST-1; assay type: cell-based, human; conditions: Compound 7 4-10 μmol/l, Compound 12 5-30 μmol/l, 0-96 hours, FIG. 6
# Protocol: as §3
# PCI66 cell line = test: Cell growth assay (pancreatic cancer cell), WST-1; assay type: cell-based, human; conditions: Compound 7 4-10 μmol/l, Compound 12 5-30 μmol/l, 0-96 hours, FIG. 7
# Protocol: as §3
# PCI55 cell line = test: Cell growth assay (pancreatic cancer cell), WST-1; assay type: cell-based, human; conditions: Compound 7 4-10 μmol/l, Compound 12 5-30 μmol/l, 0-96 hours, FIG. 3
# Protocol: as §3
# PANC-1 cell line = test: Cell growth assay (pancreatic cancer cell), WST-1; assay type: cell-based, human; conditions: Compound 7 4-10 μmol/l, Compound 12 5-30 μmol/l, 0-96 hours, FIG. 4
# Protocol: as §3
Compound,inhibition of Pim-3 activity (Pim-3),inhibition of cell growth (Hep3B),inhibition of cell growth (HuH7),inhibition of cell growth (HepG2),inhibition of cell growth (SW480),inhibition of cell growth (HT29),inhibition of cell growth (SW48),inhibition of cell growth (L3.6 pl cell line),inhibition of cell growth (PCI35 cell line),inhibition of cell growth (MiaPaCa-2 cell line),inhibition of cell growth (PCI66 cell line),inhibition of cell growth (PCI55 cell line),inhibition of cell growth (PANC-1 cell line),melting point [°C]
O=C1CC[C@@]23C(=O)CC[C@@H]2CCCCN13 [Compound 5],inhibit the Pim-3 activity in a concentration-dependent manner,–,–,–,–,–,–,–,–,–,–,–,–,–
CCOC(=O)C#C[C@@]1(O)/C(=C/c2ccccc2)C[C@@H]2CCCCN3C(=O)CC[C@]231 [Compound 7],inhibit the Pim-3 activity in a concentration-dependent manner,inhibit the growth,inhibit the growth,inhibit the growth,inhibit the growth,inhibit the growth,inhibit the growth,inhibit the growth,inhibit the growth,inhibit the growth,inhibit the growth,inhibit the growth,inhibit the growth,209 to 211
